Assay results taken from patent US10183021B2, “sGC stimulators” (Ironwood Pharmaceuticals, Inc., priority 2013, dated 2019).

Target: soluble guanylate cyclase (sGC) (Homo sapiens (Human), UniProt Q02108+Q02153)
Assay: sGC-HEK-cGMP assay, new protocol with DETA-NONOate, LC/MS detection (Example 2C)
Format: cell-based
Conditions: read-out: Absolute EC50 (uM) - binned

Chain of soluble guanylate cyclase (sGC) (Q02153 whole entry): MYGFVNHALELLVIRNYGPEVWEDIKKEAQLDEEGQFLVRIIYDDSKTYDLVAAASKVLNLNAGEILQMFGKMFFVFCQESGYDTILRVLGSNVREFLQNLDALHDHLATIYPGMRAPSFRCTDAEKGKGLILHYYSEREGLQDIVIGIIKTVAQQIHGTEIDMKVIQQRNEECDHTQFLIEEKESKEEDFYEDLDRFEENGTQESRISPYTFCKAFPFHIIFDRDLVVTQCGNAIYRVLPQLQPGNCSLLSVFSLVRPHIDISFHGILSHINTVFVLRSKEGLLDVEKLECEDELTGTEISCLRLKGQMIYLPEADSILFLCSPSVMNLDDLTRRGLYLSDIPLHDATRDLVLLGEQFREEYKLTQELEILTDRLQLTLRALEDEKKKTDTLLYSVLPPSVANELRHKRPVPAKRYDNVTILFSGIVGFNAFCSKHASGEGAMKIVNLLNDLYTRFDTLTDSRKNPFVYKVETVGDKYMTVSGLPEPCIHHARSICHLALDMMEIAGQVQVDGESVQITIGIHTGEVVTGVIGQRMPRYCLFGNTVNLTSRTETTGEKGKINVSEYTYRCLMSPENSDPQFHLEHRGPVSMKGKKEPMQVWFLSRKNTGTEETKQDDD
Chain of soluble guanylate cyclase (sGC) (Q02108 whole entry): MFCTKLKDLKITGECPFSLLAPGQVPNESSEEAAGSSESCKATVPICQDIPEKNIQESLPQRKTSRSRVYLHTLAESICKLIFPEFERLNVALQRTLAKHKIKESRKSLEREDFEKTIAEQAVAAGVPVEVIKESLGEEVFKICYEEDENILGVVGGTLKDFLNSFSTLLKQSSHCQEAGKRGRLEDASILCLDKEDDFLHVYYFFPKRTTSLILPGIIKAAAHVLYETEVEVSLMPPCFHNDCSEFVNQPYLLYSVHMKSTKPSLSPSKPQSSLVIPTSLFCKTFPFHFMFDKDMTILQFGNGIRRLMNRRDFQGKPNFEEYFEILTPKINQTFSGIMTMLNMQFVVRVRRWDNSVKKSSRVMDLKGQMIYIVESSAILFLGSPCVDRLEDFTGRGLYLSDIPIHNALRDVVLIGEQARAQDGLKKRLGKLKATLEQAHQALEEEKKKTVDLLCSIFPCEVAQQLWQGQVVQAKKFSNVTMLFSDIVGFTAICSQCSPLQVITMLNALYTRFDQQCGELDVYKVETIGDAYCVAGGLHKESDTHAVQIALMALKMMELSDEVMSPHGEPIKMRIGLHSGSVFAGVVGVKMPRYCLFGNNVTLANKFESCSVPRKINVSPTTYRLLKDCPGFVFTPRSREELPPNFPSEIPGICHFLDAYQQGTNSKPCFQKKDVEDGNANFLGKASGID

Compound	EC50
COCCS(=O)(=O)Nc1ccnc(-c2cc(-c3ccon3)n(Cc3ccccc3F)n2)n1 [Compound I-479]	0.101 to 1 µM
CN(CC1(C(=O)O)CC1)c1nc(-c2cc(C#N)n(Cc3ccccc3F)n2)ncc1F [Compound I-480]	0.101 to 1 µM
CN(CC1(C(=O)O)CC1)c1nc(-c2cc(C(N)=O)n(Cc3ccccc3F)n2)ncc1F [Compound I-481]	> 1 µM
O=C1OC(C(F)(F)F)CN1c1ccnc(-c2cc(-c3ccon3)n(Cc3ccccc3F)n2)n1 (centres unmarked) [Compound I-482]	> 1 µM
O=[N+]([O-])c1cnc(-c2cc(-c3ccon3)n(Cc3ccccc3F)n2)nc1NCC(O)(C(F)(F)F)C(F)(F)F [Compound I-483]	> 1 µM
Nc1cnc(-c2cc(-c3ccon3)n(Cc3ccccc3F)n2)nc1NCC(O)(C(F)(F)F)C(F)(F)F [Compound I-484]	0.101 to 1 µM
O=C1CC(Nc2nc(-c3cc(-c4ccon4)n(Cc4ccccc4F)n3)ncc2F)CN1 (centres unmarked) [Compound I-485]	< 0.1 µM
NS(=O)(=O)CCCC(=O)Nc1ccnc(-c2cc(-c3ccon3)n(Cc3ccccc3F)n2)n1 [Compound I-486]	> 1 µM
CS(=O)(=O)CCNc1nc(-c2cc(-c3ccon3)n(Cc3ccccc3F)n2)ncc1F [Compound I-487]	< 0.1 µM
OC(CNc1nc(-c2cc(-c3ccon3)n(Cc3cccc(F)c3F)n2)ncc1F)(C(F)(F)F)C(F)(F)F [Compound I-488]	0.101 to 1 µM
O=C(O)C(O)(CNc1nc(-c2cc(-c3ccon3)n(Cc3cccc(F)c3F)n2)ncc1F)C(F)(F)F (centres unmarked) [Compound I-489]	> 1 µM
O=C(CC(O)(C(F)(F)F)C(F)(F)F)Nc1ccnc(-c2cc(-c3ccon3)n(Cc3ccccc3F)n2)n1 [Compound I-490]	0.101 to 1 µM
O=S(=O)(Cc1ccc(F)cc1)Nc1ccnc(-c2cc(-c3ccon3)n(Cc3ccccc3F)n2)n1 [Compound I-491]	0.101 to 1 µM
O=C1Nc2nc(-c3cc(-c4ccon4)n(Cc4ccccc4F)n3)ncc2OC1(C(F)(F)F)C(F)(F)F [Compound I-492]	0.101 to 1 µM
O=C(NC1CC1)C(Nc1nc(-c2cc(-c3ccon3)n(Cc3ccccc3F)n2)ncc1F)C(F)(F)F (centres unmarked) [Compound I-493]	0.101 to 1 µM
CC1(C)CCN(c2ccnc(-c3cc(-c4ccon4)n(Cc4ccccc4F)n3)n2)C1=O [Compound I-494]	0.101 to 1 µM
[2H]C([2H])(O)C([2H])([2H])Nc1nc(-c2cc(-c3ccon3)n(Cc3ccccc3F)n2)ncc1F [Compound I-495]	< 0.1 µM
Cc1nnc(CNc2nc(-c3cc(-c4ccon4)n(Cc4ccccc4F)n3)ncc2F)o1 [Compound I-496]	< 0.1 µM
CC(=O)OCC(=O)Nc1ccnc(-c2cc(-c3ccon3)n(Cc3ccccc3F)n2)n1 [Compound I-497]	0.101 to 1 µM
CC(=O)OCC(=O)Nc1nc(-c2cc(-c3ccon3)n(Cc3ccccc3F)n2)ncc1F [Compound I-498]	0.101 to 1 µM
O=C(CO)Nc1ccnc(-c2cc(-c3ccon3)n(Cc3ccccc3F)n2)n1 [Compound I-499]	> 1 µM
OC(CNc1ccnc(-c2cc(-c3ccon3)n(Cc3ccccc3F)n2)n1)(C(F)(F)F)C(F)(F)F [Compound I-500]	0.101 to 1 µM
O=C1CCC(C(F)(F)F)N1c1nc(-c2cc(-c3ccon3)n(Cc3ccccc3F)n2)ncc1F (centres unmarked) [Compound I-501]	> 1 µM
OCC1(Nc2nc(-c3cc(-c4ccon4)n(Cc4ccccc4F)n3)ncc2F)CC1 [Compound I-502]	0.101 to 1 µM
O=S1(=O)CCCN1c1nc(-c2cc(-c3ccon3)n(Cc3ccccc3F)n2)ncc1F [Compound I-503]	0.101 to 1 µM

Compound	EC50
O=C1OCC(C(F)(F)F)N1c1ccnc(-c2cc(-c3ccon3)n(Cc3ccccc3F)n2)n1 (centres unmarked) [Compound I-504]	> 1 µM
CC(C)S(=O)(=O)Nc1nc(-c2cc(-c3ccon3)n(Cc3ccccc3F)n2)ncc1F [Compound I-505]	0.101 to 1 µM
Oc1nc(-c2cc(-c3ccon3)n(CCC(F)(F)F)n2)ncc1F [Compound I-507]	> 1 µM
CC(C)C(Nc1nc(-c2cc(-c3ccon3)n(Cc3ccccc3F)n2)ncc1F)C(=O)NC1CC1 (centres unmarked) [Compound I-508]	< 0.1 µM
Fc1ccccc1Cn1nc(-c2ncc(F)c(NCCSC(F)(F)F)n2)cc1-c1ccon1 [Compound I-509]	< 0.1 µM
COC(=O)CS(=O)(=O)Nc1ccnc(-c2cc(-c3ccon3)n(Cc3ccccc3F)n2)n1 [Compound I-510]	0.101 to 1 µM
NC(=O)CNc1nc(-c2cc(-c3ccon3)n(CCC(F)(F)F)n2)ncc1F [Compound I-511]	> 1 µM
CC1(C)CCC(=O)N1c1nc(-c2cc(-c3ccon3)n(Cc3ccccc3F)n2)ncc1F [Compound I-512]	> 1 µM
Nc1nc(-c2cc(-c3ccon3)n(CCC(F)(F)F)n2)ncc1F [Compound I-513]	> 1 µM
O=S(=O)(CCNc1nc(-c2cc(-c3ccon3)n(Cc3ccccc3F)n2)ncc1F)C(F)(F)F [Compound I-514]	< 0.1 µM
NC(=O)C1(CNc2nc(-c3cc(-c4ccon4)n(Cc4ccccc4F)n3)ncc2F)CC1 [Compound I-515]	< 0.1 µM
OC(CNc1nc(-c2cc(-c3ccon3)n(CCC(F)(F)F)n2)ncc1F)(C(F)(F)F)C(F)(F)F [Compound I-516]	> 1 µM
CCN(CC)c1nc(-c2cc(-c3ccon3)n(CCC(F)(F)F)n2)ncc1F [Compound I-517]	> 1 µM
NC(CNc1nc(-c2cc(-c3ccon3)n(Cc3ccccc3F)n2)ncc1F)C(F)(F)F (centres unmarked) [Compound I-518]	< 0.1 µM
CC(C)(C)OC(=O)NCC(=O)Nc1ccnc(-c2cc(-c3ccon3)n(Cc3ccccc3F)n2)n1 [Compound I-519]	0.101 to 1 µM
NCC(=O)Nc1ccnc(-c2cc(-c3ccon3)n(Cc3ccccc3F)n2)n1 [Compound I-520]	0.101 to 1 µM
OCC(F)(F)CNc1nc(-c2cc(-c3ccon3)n(Cc3ccccc3F)n2)ncc1F [Compound I-521]	< 0.1 µM
NC(=O)C(O)(CNc1nc(-c2cc(-c3ccon3)n(Cc3cccc(F)c3F)n2)ncc1F)C(F)(F)F (centres unmarked) [Compound I-522]	< 0.1 µM
CN(CC1(C(=O)O)CC1)c1nc(-c2cc(-c3ccon3)n(CCC(F)(F)F)n2)ncc1F [Compound I-523]	> 1 µM
CC(=O)Nc1ccnc(-c2cc(-c3ccon3)n(Cc3ccccc3F)n2)n1 [Compound I-524]	> 1 µM
O=C(Nc1ccnc(-c2cc(-c3ccon3)n(Cc3ccccc3F)n2)n1)C1(OCc2ccccc2)CCOCC1 [Compound I-525]	> 1 µM
CC1(S(C)(=O)=O)CCN(c2nc(-c3cc(-c4ccon4)n(Cc4ccccc4F)n3)ncc2F)C1=O (centres unmarked) [Compound I-526]	> 1 µM
CC(CCO)(C(=O)Nc1nc(-c2cc(-c3ccon3)n(Cc3ccccc3F)n2)ncc1F)S(C)(=O)=O (centres unmarked) [Compound I-527]	0.101 to 1 µM
COCC(=O)Nc1ccnc(-c2cc(-c3ccon3)n(Cc3ccccc3F)n2)n1 [Compound I-528]	> 1 µM
CN(CC(O)(C(F)(F)F)C(F)(F)F)c1nc(-c2cc(-c3ccon3)n(Cc3ccccc3F)n2)ncc1F [Compound I-529]	> 1 µM

Compound	EC50
NC(=O)[C@@](O)(CNc1nc(-c2cc(-c3ccon3)n(Cc3ccccc3F)n2)ncc1F)C(F)(F)F [Compound I-530]	0.101 to 1 µM
NC(=O)[C@](O)(CNc1nc(-c2cc(-c3ccon3)n(Cc3ccccc3F)n2)ncc1F)C(F)(F)F [Compound I-531]	< 0.1 µM
O=C(Nc1ccnc(-c2cc(-c3ccon3)n(Cc3ccccc3F)n2)n1)c1cocn1 [Compound I-532]	> 1 µM
O=C1CCC(=O)N1c1nc(-c2cc(-c3ccon3)n(Cc3ccccc3F)n2)ncc1F [Compound I-533]	0.101 to 1 µM
NC(=O)C1CCC(=O)N1c1nc(-c2cc(-c3ccon3)n(Cc3ccccc3F)n2)ncc1F (centres unmarked) [Compound I-534]	> 1 µM
CC(=O)NCC(=O)Nc1ccnc(-c2cc(-c3ccon3)n(Cc3ccccc3F)n2)n1 [Compound I-535]	0.101 to 1 µM
CC(C)[C@@H](Nc1nc(-c2cc(-c3ccon3)n(Cc3ccccc3F)n2)ncc1F)C(N)=O [Compound I-536]	< 0.1 µM
CC(C)[C@H](Nc1nc(-c2cc(-c3ccon3)n(Cc3ccccc3F)n2)ncc1F)C(N)=O [Compound I-537]	< 0.1 µM
NC(=O)C1(Nc2nc(-c3cc(-c4ccon4)n(Cc4ccccc4F)n3)ncc2F)CC1 [Compound I-538]	< 0.1 µM
O=S(=O)(CCO)Nc1ccnc(-c2cc(-c3ccon3)n(Cc3ccccc3F)n2)n1 [Compound I-539]	> 1 µM
NC(=O)C(Nc1nc(-c2cc(-c3ccon3)n(Cc3ccccc3F)n2)ncc1F)C(F)(F)F (centres unmarked) [Compound I-540]	0.101 to 1 µM
COC(=O)Nc1nc(-c2cc(-c3ccon3)n(Cc3ccccc3F)n2)ncc1[N+](=O)[O-] [Compound I-541]	> 1 µM
COC(=O)Nc1nc(-c2cc(-c3ccon3)n(Cc3ccccc3F)n2)ncc1N [Compound I-542]	0.101 to 1 µM
CS(=O)(=O)NCC(=O)Nc1ccnc(-c2cc(-c3ccon3)n(Cc3ccccc3F)n2)n1 [Compound I-543]	0.101 to 1 µM
CS(=O)(=O)NCCC(Nc1nc(-c2cc(-c3ccon3)n(Cc3ccccc3F)n2)ncc1F)C(F)(F)F (centres unmarked) [Compound I-544]	< 0.1 µM
CS(=O)(=O)C1(CNc2nc(-c3cc(-c4ccon4)n(Cc4ccccc4F)n3)ncc2F)CC1 [Compound I-545]	< 0.1 µM
CS(=O)(=O)NC(=O)CNc1nc(-c2cc(-c3ccon3)n(Cc3ccccc3F)n2)ncc1F [Compound I-546]	> 1 µM
COCCC(=O)Nc1ccnc(-c2cc(-c3ccon3)n(Cc3ccccc3F)n2)n1 [Compound I-547]	0.101 to 1 µM
Cc1ccc(S(=O)(=O)NC(C)C(=O)Nc2ccnc(-c3cc(-c4ccon4)n(Cc4ccccc4F)n3)n2)cc1 (centres unmarked) [Compound I-548]	> 1 µM
O=C(Nc1ccnc(-c2cc(-c3ccon3)n(Cc3ccccc3F)n2)n1)c1cscn1 [Compound I-549]	> 1 µM
O=C(Nc1ccnc(-c2cc(-c3ccon3)n(Cc3ccccc3F)n2)n1)c1ccc[nH]1 [Compound I-550]	> 1 µM
N#CC1(C(=O)Nc2ccnc(-c3cc(-c4ccon4)n(Cc4ccccc4F)n3)n2)CC1 [Compound I-551]	> 1 µM
O=C(Nc1ccnc(-c2cc(-c3ccon3)n(Cc3ccccc3F)n2)n1)c1cncs1 [Compound I-552]	> 1 µM
O=C(Nc1ccnc(-c2cc(-c3ccon3)n(Cc3ccccc3F)n2)n1)c1cccc(=O)[nH]1 [Compound I-553]	> 1 µM
